Reference: patent publication US20080286388A1, “Pharmaceutical Composition and Non Dependence Coffee Comprising Edible Carboxylic Acid and/or Its Acid Salts and Coffeine” (priority 2004, published 2008)

Tests used:
[1] = tested on: person; assay: Tests for increase the ability of learning and memory; format: in vivo, human; details: Homo sapiens, po; three pieces of 600 mg, average of four tests before and after ingesting; read-out: Increase rate (%) of memory ability
Method: A person administrates see a random series of 100 numbers, typed by PC, for 10 minutes and memory it. Then recite and write down the memorized number series. To check the recited series with the original one to see how many numbers are correct. In each testing at least has 10 minutes interval, and repeat four times. […] Each kind of drugs testing is done in half day, morning or afternoon only. The testing results were counted by one correct number for one point. Make the average value of four times testing of before and after drug ingesting, respectively. The increase of learning or memory ability is calculated by following equation and listed in Table 14: Rate of increase of memory ability=[(average value of four time testing before ingesting drug)−(average value of four times testing after ingesting drug)]×100%/(average value of four time testing before ingesting drug)

[2] = tested on: mouse's leaching cell solution (abdominal cavity cells), histamine release by 48/80 compound; assay: Drug inhibiting effect on histamine leaching from mouse abdominal cavity cells treated with 48/80 compound; format: cell-based; details: for inhibiting rate (%) (adding 5% of coffee extract) / Inhibiting rate (%) (non adding coffee extract): testing drug 100 μg/ml
Method: This is a comparative testing for drug depressing effect on the amount of leaching histamines when is treated with 48/80 (Sigma, St. MO, USA) compound.
(1). Preparation of Leaching Cell Solution from Mouse Body.
A mouse is killed and bloodletting. Then 10 ml of Locke's solution containing 0.1% bovine serum protein is injected into its abdominal cavity. After abdominal cavity being light massaged, the cavity is cut and the Locke's solution is removed. Cavity is washed with another 5 ml of Locke's solution, and this washed solution is added to the latter one. This combined solution is centrifuged at 600 rpm for 5 minutes. The sediments are washed with 5 ml of cool Locke's solution. Adding 3 ml of cold Locke's solution to the washed sediments, then a leached cell solution of abdominal cavity is obtained. (The composition of Locke's solution is: NaCL […], KCL 0.2%, CaCL2 0.15%, glucose 1.0%, in w/v, and the rest distillated water.)
(2). Drug Inhibiting Effect on the Amount of Leaching Histamines when Treated with 48/80 Compound.
1.0 ml of each of those solutions in last term is mixed with 0.3 ml of mouse's leaching cell solution and 0.5 ml of Locke's solution. This mixture is cultivated at 37° C. for 5 minutes. Then adding 0.2 ml of Locke's solution of 48/80 compound (1 mg/100 ml) and cultivated at 37° C. for 10 minutes. Then the reaction is stopped by cooling, and centrifuged at 2,500 rpm for 10 minutes. 1.7 ml of decanted solution and 0.3 ml of sediments are obtained.
0.1 ml of water and 0.2 ml of 100% trichloroacetic acid are added to the decanted solution. 1.5 ml of Locke's solution and 0.2 ml of 100% trichloroacetic acid are added to the sediments washed solution. They are cultivated at room temperature for 30 minutes. After cultivation, the mixtures are centrifuged at 3,000 rpm for 15 minutes, respectively. 0.35 ml of each of the former two solutions is sampled. In each sample, 1.65 ml of water, 0.4 ml of 1N NaOH and 0.1 ml of 0.5% OPT (o-phthalic aldehyde) in methanol are added and cultivated at room temperature for 4 minutes. The reaction is stopped by adding 0.2 ml of 2M citric acid. And finally, determine the amount of released histamines in the tested solution by fluorescence method. By the analysis, results of the inhibiting rate of histamines could be calculated.
Locke's solution is instead of each drug in control group, and instead of both drug and 48/80 compound solution in blank group.
The histamine releasing rate (A) can be calculated by following equation. […] Where (Hs) is the total amount of histamine in the decanted solution, and (Hr) is the total amount of histamine in the sediment. (A)=[(Hs)/{(Hs)+(Hr)}]×100%. Then the inhibiting rate is:
=100−[(A−A in blank group)/(A−A in control group)]×100%.

[3] = dose 2 μg/ml, adding 5% of coffee extract
[4] = dose 5 μg/ml, adding 5% of coffee extract
[5] = dose 10 μg/ml, adding 5% of coffee extract
[6] = dose 100 μg/ml, adding 5% of coffee extract
[7] = dose 300 μg/ml, adding 5% of coffee extract
[8] = dose 1000 μg/ml, adding 5% of coffee extract

| Compound | inhibiting rate (%) (adding 5% of coffee extract) ([2]; adding 5% of coffee extract) | Inhibiting rate (%) (non adding coffee extract) [2] | other results |
| --- | --- | --- | --- |
| O=C(O)/C=C\C(=O)O [Maleic acid] | – | – | change in vivo at 1800 mg [1]: 370% |
| CC1(C)[C@@H](O[C@H]2O[C@H](C(=O)[O-])[C@@H](O)[C@H](O)[C@H]2O[C@@H]2O[C@H](C(=O)[O-])[C@@H](O)[C@H](O)[C@H]2O)CC[C@]2(C)[C@H]3C(=O)C=C4[C@@H]5C[C@@](C)(C(=O)[O-])CC[C@]5(C)CC[C@@]4(C)[C@]3(C)CC[C@@H]12.[Na+].[Na+].[Na+] [Trisodium glycyrrhizinate, reference compound] | 48.3 | 30.9 | IC50 value (concentration for inhibiting rate of 50%) ([2]; adding 5% of coffee extract, calculated by figure): 200 µg/mL; Histamine releasing rate (%) [2, 3]: 90.1%; Inhibiting rate (%) [2, 3]: 0.8%; Histamine releasing rate (%) [2, 4]: 89.5%; Inhibiting rate (%) [2, 4]: 1.6%; Histamine releasing rate (%) [2, 5]: 88.1%; Inhibiting rate (%) [2, 5]: 3.3%; Inhibiting rate (%) ([2]; dose 50 μg/ml, adding 5% of coffee extract): 17.8%; Histamine releasing rate (%) [2, 6]: 65.5%; Inhibiting rate (%) [2, 6]: 31.1%; Histamine releasing rate (%) [2, 7]: 32.7%; Inhibiting rate (%) [2, 7]: 70.5%; Histamine releasing rate (%) [2, 8]: 9.2%; Inhibiting rate (%) [2, 8]: 100% |
| O=C([O-])CC(O)(CC(=O)O)C(=O)[O-].[K+].[K+] [dipotassium hydrogen citrate] | 48.7 | 40.0 | – |
| O=C([O-])CC(O)(CC(=O)[O-])C(=O)O.[Na+].[Na+] [disodium hydrogen citrate] | 49.4 | 39.1 | – |
| O=C([O-])CC(O)(CC(=O)O)C(=O)O.[K+] [potassium dihydrogen citrate] | 100 | 100 | – |
| O=C([O-])/C=C/C(=O)O.[K+] [potassium hydrogen fumate] | 100 | 100 | – |
| O=C(O)CC(O)C(=O)O.[K] (centres unmarked) [potassium hydrogen malate] | 100 | 100 | – |
| O=C([O-])/C=C\C(=O)O.[K+] [potassium hydrogen maleate] | 100 | 100 | – |
| O=C([O-])CCC(=O)O.[K+] [potassium hydrogen succinate] | 100 | 100 | – |
| O=C([O-])C(O)C(O)C(=O)O.[K+] (centres unmarked) [potassium hydrogen tartrate] | 100 | 100 | – |
| O=C(O)CC(O)(CC(=O)O)C(=O)[O-].[Na+] [sodium dihydrogen citrate] | 100 | 100 | – |
| O=C([O-])/C=C/C(=O)O.[Na+] [sodium hydrogen fumate] | 100 | 100 | – |
| O=C([O-])CC(O)C(=O)O.[Na+] (centres unmarked) [sodium hydrogen malate] | 100 | 100 | – |
| O=C([O-])/C=C\C(=O)O.[Na+] [sodium hydrogen maleate] | 100 | 100 | – |
| O=C([O-])CCC(=O)O.[Na+] [sodium hydrogen succinate] | 100 | 100 | – |
| O=C([O-])C(O)C(O)C(=O)O.[Na+] (centres unmarked) [sodium hydrogen tartrate] | 100 | 100 | – |
| Diphenhydramine citrate [reference compound] | 55.5 | 37.5 | – |
